Assay results: patent publication US20240391862A1, “(1,4,5-TRISUBSTITUTED-1H-PYRAZOL-3-YL)OXY-2-ALKOXY ALKYL ACIDS AND THEIR DERIVATIVES, THEIR SALTS AND THEIR USE AS HERBICIDAL AGENTS” (Bayer AKtiengesellschaft, priority 2021, published 2024)

Experiments:
[1] = tested on: MATIN; assay: Post-emergence herbicidal effect, greenhouse pot test; type: in vivo, Tripleurospermum inodorum
Procedure, shortened: (§1)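 Sandy loam pots, greenhouse. One-leaf stage (2–3 wk after sowing) foliar spray; WP/EC in water + 0.5% additive, 600 l/ha; 20–320 g/ha. Visual score ~3 wk, 0–100% vs untreated.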

[2] = tested on: VIOTR; assay: as above; type: in vivo, Viola tricolor; details: Viola tricolor, 504 h, read-out: Post-emergence effect against VIOTR in %
Procedure, shortened: as §1

[3] = tested on: ZEAMX; assay: Post-emergence herbicidal effect and crop plant compatibility, greenhouse pot test; type: in vivo, Zea mays; details: one-leaf stage, rated visually after about 3 weeks vs untreated controls; for plant injury at 20 g/ha: read-out: Post-emergence effect at 20 g/ha against ZEAMX in %; for plant injury at 80 g/ha: read-out: Post-emergence effect at 80 g/ha against ZEAMX in %
Procedure, shortened: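 Visual % activity scored roughly 3 weeks post-spray against untreated plants, where 100% means death and 0% equals control. Plants were treated at the one-leaf stage, 2 to 3 weeks after sowing in sandy loam, at 20 to 320 g/ha.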

[4] = tested on: ALOMY; assay: Post-emergence herbicidal effect, greenhouse pot test; type: in vivo, Alopecurus myosuroides; details: 320 g/ha, visual rating about 3 weeks after treatment; for pest or weed control at 320 g/ha: Alopecurus myosuroides, 504 h, read-out: Post-emergence effect against ALOMY
Procedure, shortened: as §1

[5] = tested on: PHBPU; assay: as above; type: in vivo, Ipomoea purpurea
Procedure, shortened: as §1

[6] = tested on: SETVI; assay: as above; type: in vivo, Setaria viridis
Procedure, shortened: as §1

[7] = tested on: DIGSA; assay: as above; type: in vivo, Digitaria sanguinalis; details: visual rating about 3 weeks after treatment
Procedure, shortened: as §1

[8] = tested on: AVEFA; assay: as above; type: in vivo, Avena fatua; details: 320 g/ha, visual rating about 3 weeks after treatment; for pest or weed control at 320 g/ha: Avena fatua, 504 h, read-out: Post-emergence effect against AVEFA
Procedure, shortened: as §1

[9] = tested on: AMARE; assay: as above; type: in vivo, Amaranthus retroflexus; details: Amaranthus retroflexus, 504 h, visual rating about 3 weeks after treatment, read-out: Post-emergence effect against AMARE
Procedure, shortened: as §1

[10] = tested on: VERPE; assay: as above; type: in vivo, Veronica persica
Procedure, shortened: as §1

[11] = tested on: TRZAS; assay: Post-emergence herbicidal effect and crop plant compatibility, greenhouse pot test; type: in vivo, Triticum aestivum; details: Triticum aestivum, 504 h, 20 g/ha, one-leaf stage, rated visually after about 3 weeks vs untreated controls, read-out: Post-emergence effect at 20 g/ha against TRZAS in %
Source text: • ALOMY: Alopecurus myosuroides SETVI: Setaria viridis • AVEFA: Avena fatua POLCO: Fallopia convolvulus • AMARE: Amaranthus retroflexus ECHCG: Echinochloa crus-galli • LOLRJ: Lolium rigidum STEME: Stellaria media • VERPE: Veronica persica MATIN: Tripleurospermum inodorum • DIGSA: Digitaria sanguinalis ABUTH: Abutylon threophrasti • TRZAS: Triticum aestivum VIOTR: Viola tricolor • BRSNW: Brassica napus ZEAMX: Zea mays • PHBPU: Ipomoea purpurea GLXMA: Glycine max • ORYSA: Oryza sativa HORMU: Hordeum murinum
Seeds of monocotyledonous and dicotyledonous weeds and crop plants are placed in sandy loam in plastic or organic planting pots, covered with soil and cultivated in a greenhouse under controlled growth conditions. 2 to 3 weeks after sowing, the trial plants are treated at the one-leaf stage. The compounds of the invention, formulated in the form of wettable powders (WP) or as emulsion concentrates (EC), are then sprayed onto the green parts of the plants as aqueous suspension or emulsion with addition of 0.5% additive at a water application rate of 600 l/ha (converted). After the test plants have been kept in the greenhouse under optimum growth conditions for about 3 weeks, the activity of the preparations is rated visually in comparison to untreated controls. For example, 100% activity=the plants have died, 0% activity=like control plants.
Tables 20a to 38c below show the effects/crop compatibilities of selected compounds of the general formula (I) on various harmful plants at an application rate corresponding to 20 to 320 g/ha, which were obtained by the trial procedure specified above.

[12] = tested on: ECHCG; assay: Post-emergence herbicidal effect, greenhouse pot test; type: in vivo, Echinochloa crus-galli; details: for pest or weed control at 320 g/ha / pest or weed control at 80 g/ha: Echinochloa crus-galli, 504 h, read-out: Post-emergence effect against ECHCG in %
Procedure, shortened: as §1

[13] = tested on: ABUTH; assay: as above; type: in vivo, Abutilon theophrasti; details: visual rating about 3 weeks after treatment
Procedure, shortened: as §1

[14] = tested on: POLCO; assay: as above; type: in vivo, Fallopia convolvulus; details: Fallopia convolvulus, 504 h, read-out: Post-emergence effect against POLCO in %
Procedure, shortened: as §1

[15] = tested on: KCHSC; assay: as above; type: in vivo; details: 320 g/ha; for pest or weed control at 320 g/ha: 504 h, read-out: Post-emergence effect against KCHSC in %
Procedure, shortened: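 Visual rating of activity against untreated plants (100% = plants died, 0% = no effect), done about 3 weeks after treatment. Compounds applied at 20–320 g/ha as aqueous spray (600 l/ha, 0.5% additive) from WP or EC formulations onto one-leaf-stage plants grown in sandy loam under greenhouse conditions.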

[16] = Tripleurospermum inodorum, 504 h, 320 g/ha, read-out: Post-emergence effect against MATIN in %
[17] = Ipomoea purpurea, 504 h, 320 g/ha, read-out: Post-emergence effect against PHBPU in %
[18] = Setaria viridis, 504 h, 320 g/ha, read-out: Post-emergence effect against SETVI in %
[19] = Digitaria sanguinalis, 504 h, 320 g/ha, read-out: Post-emergence effect against DIGSA
[20] = Veronica persica, 504 h, 320 g/ha, read-out: Post-emergence effect against VERPE in %
[21] = Abutilon theophrasti, 504 h, 320 g/ha, read-out: Post-emergence effect against ABUTH

SMILES | pest or weed control at 320 g/ha [1, 16] [%] | pest or weed control at 320 g/ha [2] [%] | plant injury at 20 g/ha ([3]; Zea mays, 504 h) [%] | plant injury at 80 g/ha ([3]; Zea mays, 504 h) [%] | pest or weed control at 320 g/ha [4] [%] | pest or weed control at 320 g/ha [5, 17] [%] | pest or weed control at 320 g/ha [6, 18] [%] | pest or weed control at 320 g/ha [7, 19] [%] | pest or weed control at 320 g/ha [8] [%] | pest or weed control at 320 g/ha [9] [%] | pest or weed control at 320 g/ha [10, 20] [%] | percent crop injury (phytotoxicity) to wheat, post-emergence at 20 g/ha [11] [%] | pest or weed control at 320 g/ha ([12]; 320 g/ha) [%] | pest or weed control at 320 g/ha [13, 21] [%] | pest or weed control at 320 g/ha [14] [%] | pest or weed control at 320 g/ha [15] [%] | pest or weed control at 80 g/ha ([12]; 80 g/ha) [%] | other results
CCOC(=O)C(OC)Oc1nn(-c2ccccc2F)c(-c2ccc(F)nc2)c1Br (centres unmarked) [Example I-22] | 90 | 80 | 20 | 20 | 90 | 90 | 90 | 80 | 80 | 90 | 90 | 20 | 90 | – | – | – | – | pest or weed control at 80 g/ha ([10]; Veronica persica, 504 h, 80 g/ha, read-out: Post-emergence effect against VERPE in %): 90%
COC(Oc1nn(-c2ncccc2F)c(-c2ccc(F)nc2)c1C1CC1)C(=O)O (centres unmarked) [Example I-56] | – | 90 | 0 | 0 | – | 80 | 80 | 80 | 80 | – | 80 | 0 | 90 | 80 | 80 | 90 | 80 | Post-emergence effect at 320 g/ha against ZEAMX in % ([3]; 320 g/ha): 20%
COC(Oc1nn(-c2ccccc2F)c(-c2ccc(F)nc2)c1C1CC1)C(=O)O (centres unmarked) [Example I-69] | 80 | 90 | 0 | 0 | – | 80 | – | – | – | – | 80 | 0 | 90 | 90 | 80 | 80 | – | pest or weed control at 80 g/ha ([14]; 80 g/ha): 80%
COC(Oc1nn(-c2ncccc2F)c(-c2ccc(F)nc2)c1C(F)(F)F)C(=O)O (centres unmarked) [Example I-57] | – | 80 | 0 | 0 | – | 80 | – | – | 80 | – | – | 0 | 90 | – | 80 | 90 | – | plant injury at 320 g/ha ([3]; Zea mays, 504 h, 320 g/ha, read-out: Post-emergence effect at 320 g/ha against ZEAMX in %): 0%
CCOC(Oc1nn(-c2ccccc2F)c(-c2ccc(F)nc2)c1Br)C(=O)OCCC(=O)OC (single isomer, unassigned) [Example I-64, Methyl 3-{[(2R*)-2-{[4-bromo-1-(2-fluorophenyl)-5-(6-fluoropyridin-3-yl)-1H-pyrazol-3-yl]oxy}-2-ethoxyethanoyl]oxy}propanoate] | – | – | 20 | – | – | – | – | – | – | – | – | 10 | – | – | – | – | – | Post-emergence effect against ABUTH ([13]; 320 g/ha): 80%; Post-emergence effect against MATIN in % ([1]; 320 g/ha): 80%; Post-emergence effect against ALOMY [4]: 90%; Post-emergence effect against PHBPU in % ([5]; 80 g/ha): 80%; Post-emergence effect against PHBPU in % ([5]; 320 g/ha): 90%; Post-emergence effect against SETVI in % ([6]; 320 g/ha): 90%; Post-emergence effect against KCHSC in % [15]: 90%; Post-emergence effect against DIGSA ([7]; 320 g/ha): 80%; Post-emergence effect against AVEFA [8]: 90%; Post-emergence effect against VERPE in % ([10]; 80 g/ha): 80%; Post-emergence effect against VERPE in % ([10]; 320 g/ha): 80%; Post-emergence effect against ECHCG in % ([12]; 80 g/ha): 80%; Post-emergence effect against ECHCG in % ([12]; 320 g/ha): 90%
COC(=O)C(OC)Oc1nn(-c2cccc(Cl)c2F)c(-c2cncc(F)c2)c1Cl (centres unmarked) [Example I-16, Methyl {[4-chloro-1-(3-chloro-2-fluorophenyl)-5-(5-fluoropyridin-3-yl)-1H-pyrazol-3-yl]oxy}(methoxy)acetate] | 90 | 90 | – | – | 90 | 90 | 80 | 90 | 90 | 80 | 80 | 10 | 90 | 90 | 80 | – | 90 | pest or weed control at 80 g/ha ([13]; Abutilon theophrasti, 504 h, 80 g/ha, read-out: Post-emergence effect against ABUTH): 90%; pest or weed control at 80 g/ha ([1]; Tripleurospermum inodorum, 504 h, 80 g/ha, read-out: Post-emergence effect against MATIN in %): 80%; pest or weed control at 20 g/ha ([2]; 20 g/ha): 80%; pest or weed control at 80 g/ha ([2]; 80 g/ha): 80%; pest or weed control at 20 g/ha ([5]; Ipomoea purpurea, 504 h, 20 g/ha, read-out: Post-emergence effect against PHBPU in %): 80%; pest or weed control at 80 g/ha ([5]; Ipomoea purpurea, 504 h, 80 g/ha, read-out: Post-emergence effect against PHBPU in %): 90%; pest or weed control at 80 g/ha ([6]; Setaria viridis, 504 h, 80 g/ha, read-out: Post-emergence effect against SETVI in %): 80%; pest or weed control at 80 g/ha ([7]; Digitaria sanguinalis, 504 h, 80 g/ha, read-out: Post-emergence effect against DIGSA): 80%; pest or weed control at 80 g/ha ([9]; 80 g/ha): 80%
